Test results published in ChEMBL document CHEMBL1201862, “PubChem BioAssay data set” (2004).
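All cell lines were grown in 96-well plates and treated with compound for 48 hours. GI50 marks 50% less growth.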 Active and inactive are the calls of the source. Cut-off read from the data, not from the text of the source: active = GI50 up to about 1.1 µM and inactive = higher.

Key:
Assay in all cases: NCI tumour cell line growth inhibition, 48 h
[1] = tested on: 786-0
[2] = tested on: A498
[3] = tested on: A549
[4] = tested on: ACHN
[5] = tested on: BT-549
[6] = tested on: CAKI-1
[7] = tested on: CCRF-CEM
[8] = tested on: COLO 205
[9] = tested on: DU-145
[10] = tested on: EKVX
[11] = tested on: HCC 2998
[12] = tested on: HCT-116
[13] = tested on: HCT-15
[14] = tested on: HL-60
[15] = tested on: HOP-62
[16] = tested on: HOP-92
[17] = tested on: HT-29
[18] = tested on: Hs-578T
[19] = tested on: IGROV-1
[20] = tested on: K562
[21] = tested on: KM12
[22] = tested on: LOX IMVI
[23] = tested on: M14
[24] = tested on: MCF7
[25] = tested on: MDA-MB-231
[26] = tested on: MDA-MB-435
[27] = tested on: MDA-N
[28] = tested on: MOLT-4
[29] = tested on: Malme-3M
[30] = tested on: NCI-H226
[31] = tested on: NCI-H23
[32] = tested on: NCI-H460
[33] = tested on: NCI-H522
[34] = tested on: NCI/ADR-RES
[35] = tested on: OVCAR-3
[36] = tested on: OVCAR-4
[37] = tested on: OVCAR-5
[38] = tested on: OVCAR-8
[39] = tested on: PC-3
[40] = tested on: RPMI-8226
[41] = tested on: RXF 393
[42] = tested on: SF-268
[43] = tested on: SF-295
[44] = tested on: SK-MEL-28
[45] = tested on: SK-MEL-2
[46] = tested on: SK-MEL-5
[47] = tested on: SK-OV-3
[48] = tested on: SNB-19
[49] = tested on: SNB-75
[50] = tested on: SW-620
[51] = tested on: TK-10
[52] = tested on: U-251
[53] = tested on: UACC-257
[54] = tested on: UACC-62
[55] = tested on: UO-31
[56] = tested on: SF-539
[57] = tested on: SN12C
[58] = tested on: SR

SMILES: O=c1c2ccccc2nc(Cc2nc(-c3ccc(Cl)cc3)cs2)n1-c1ccc(Cl)cc1
- GI50 [1]: 81.3 µM (inactive)
- GI50 [2]: 68.1 µM (inactive)
- GI50 [3]: 50.6 µM (inactive)
- GI50 [4]: 37 µM (inactive)
- GI50 [5]: 82.2 µM (inactive)
- GI50 [6]: > 100 µM (inactive)
- GI50 [7]: 17.6 µM (inactive)
- GI50 [8]: 49.5 µM (inactive)
- GI50 [9]: 55.8 µM (inactive)
- GI50 [10]: 64.6 µM (inactive)
- GI50 [11]: 80 µM (inactive)
- GI50 [12]: 37.2 µM (inactive)
- GI50 [13]: 31.5 µM
- GI50 [14]: 66.2 µM (inactive)
- GI50 [15]: > 100 µM (inactive)
- GI50 [16]: 9.64 µM (inactive)
- GI50 [17]: 85.7 µM (inactive)
- GI50 [18]: > 100 µM (inactive)
- GI50 [19]: 45.2 µM (inactive)
- GI50 [20]: 5.01 µM (inactive)
- GI50 [21]: 41.8 µM (inactive)
- GI50 [22]: 50.2 µM (inactive)
- GI50 [23]: > 100 µM (inactive)
- GI50 [24]: 46.9 µM (inactive)
- GI50 [25]: > 100 µM (inactive)
- GI50 [26]: 46.3 µM (inactive)
- GI50 [27]: 41.4 µM (inactive)
- GI50 [28]: 30.9 µM (inactive)
- GI50 [29]: > 100 µM (inactive)
- GI50 [30]: 88.5 µM (inactive)
- GI50 [31]: 56.8 µM (inactive)
- GI50 [32]: 46.2 µM (inactive)
- GI50 [33]: > 100 µM (inactive)
- GI50 [34]: 57.5 µM (inactive)
- GI50 [35]: 94.2 µM (inactive)
- GI50 [36]: 76.2 µM (inactive)
- GI50 [37]: 27.1 µM (inactive)
- GI50 [38]: 82.6 µM (inactive)
- GI50 [39]: 48 µM (inactive)
- GI50 [40]: 23.8 µM (inactive)
- GI50 [41]: > 100 µM (inactive)
- GI50 [42]: 62.4 µM (inactive)
- GI50 [43]: 44.4 µM (inactive)
- GI50 [44]: 23.8 µM (inactive)
- GI50 [45]: 28.1 µM (inactive)
- GI50 [46]: 34.4 µM (inactive)
- GI50 [47]: > 100 µM (inactive)
- GI50 [48]: > 100 µM (inactive)
- GI50 [49]: 79.6 µM (inactive)
- GI50 [50]: 91.8 µM (inactive)
- GI50 [51]: > 100 µM (inactive)
- GI50 [52]: 54.5 µM (inactive)
- GI50 [53]: 67.6 µM (inactive)
- GI50 [54]: 5.78 µM (inactive)
- GI50 [55]: > 100 µM (inactive)

SMILES: NC(=O)Cn1c(=O)oc2cc(C(=O)CN3CCOCC3)ccc21
- GI50 [1]: > 100 µM (inactive)
- GI50 [2]: > 100 µM (inactive)
- GI50 [6]: > 100 µM (inactive)
- GI50 [7]: > 100 µM (inactive)
- GI50 [8]: > 100 µM (inactive)
- GI50 [9]: > 100 µM (inactive)
- GI50 [10]: > 100 µM (inactive)
- GI50 [12]: > 100 µM (inactive)
- GI50 [14]: > 100 µM (inactive)
- GI50 [15]: > 100 µM (inactive)
- GI50 [17]: > 100 µM (inactive)
- GI50 [18]: > 100 µM (inactive)
- GI50 [19]: > 100 µM (inactive)
- GI50 [20]: > 100 µM (inactive)
- GI50 [21]: > 100 µM (inactive)
- GI50 [22]: > 100 µM (inactive)
- GI50 [23]: > 100 µM (inactive)
- GI50 [24]: > 100 µM (inactive)
- GI50 [25]: > 100 µM (inactive)
- GI50 [26]: > 100 µM (inactive)
- GI50 [27]: > 100 µM (inactive)
- GI50 [28]: > 100 µM (inactive)
- GI50 [29]: > 100 µM (inactive)
- GI50 [30]: > 100 µM (inactive)
- GI50 [34]: > 100 µM (inactive)
- GI50 [35]: > 100 µM (inactive)
- GI50 [37]: > 100 µM (inactive)
- GI50 [38]: > 100 µM (inactive)
- GI50 [39]: > 100 µM (inactive)
- GI50 [40]: > 100 µM (inactive)
- GI50 [41]: > 100 µM (inactive)
- GI50 [42]: > 100 µM (inactive)
- GI50 [43]: > 100 µM (inactive)
- GI50 [56]: > 100 µM (inactive)
- GI50 [44]: > 100 µM (inactive)
- GI50 [45]: > 100 µM (inactive)
- GI50 [46]: > 100 µM (inactive)
- GI50 [47]: > 100 µM (inactive)
- GI50 [57]: > 100 µM (inactive)
- GI50 [48]: > 100 µM (inactive)
- GI50 [49]: 18.5 µM (inactive)
- GI50 [58]: > 100 µM (inactive)
- GI50 [50]: > 100 µM (inactive)
- GI50 [52]: > 100 µM (inactive)
